Reference: patent US20150189882A1, “ACTIVE INGREDIENT COMBINATIONS HAVING INSECTICIDAL AND ACARICIDAL PROPERTIES” (priority 2011, published 2015)
Read-outs that look alike come from different tables or passages of the source.

Columns and labels:
[1] = system: Spodoptera frugiperda; assay: Spodoptera frugiperda - spray application; format: in vivo; conditions: for mortality at 20 g/ha: 20 g ai/ha
Description: (§1) To produce a suitable preparation of active compound, 1 part by weight of active compound is mixed with the stated amount of solvent and emulsifier, and the concentrate is diluted with emulsifier-containing water to the desired concentration. To produce a suitable preparation of a biological suspension the cells, viruses or spores are diluted with emulsifier-containing water to the desired concentration.
Cabbage (Brassica oleracea) leaf-discs are sprayed with a preparation of the active ingredient at the desired concentration. Once dry, the leaf discs are infested with larvae of the fall army worm (Spodoptera frugiperda).
After the specified period of time, mortality in % is determined. 100% means that all the caterpillars have been killed; 0% means that none of the caterpillars have been killed. The mortality values thus determined are recalculated using the Colby-formula.

[2] = system: Phaedon cochleariae larvae; assay: whole plant or invertebrate
[3] = system: Myzus persicae; assay: whole plant or invertebrate; conditions: in Brassica rapa, foliar
[4] = system: Tetranychus urticae (OP-resistant); assay: Tetranychus urticae - test (OP-resistant), French bean leaf discs; format: in vivo; conditions: for mortality at 0.16 g/ha: 0.16 g ai/ha; for mortality at 500 g/ha: 500 g ai/ha
Description: as §1, with “cells” for “cells, viruses”
Leaf discs of French beans (Phaseolus vulgaris) infected with all instars of the Two-spotted spider mite (Tetranychus urticae), are sprayed with a preparation of the active ingredient at the desired concentration.
After the specified period of time mortality in % is determined. 100% means that all spider mites have been killed; 0% means that none of the spider mites have been killed.

[5] = system: Phaedon cochleariae larvae
[6] = system: Myzus persicae
[7] = Spodoptera frugiperda, 0.16 g ai/ha, read-out: Mortality in % after 6^d
[8] = read-out: Mortality in % after 6^d
[9] = read-out: Mortality in % after 2^d
[10] = Tetranychus urticae, foliar, 0.8 g ai/ha, read-out: Mortality in % after 2^d
[11] = read-out: Mortality in % after 1^d
[12] = Tetranychus urticae, foliar, read-out: Mortality in % after 2^d
[13] = Spodoptera frugiperda, read-out: Mortality in % after 2^d
[14] = Tetranychus urticae, foliar, 4 g ai/ha, read-out: Mortality in % after 2^d

Cc1c(COC(=O)[C@@H]2[C@H](/C=C(\Cl)C(F)(F)F)C2(C)C)cccc1-c1ccccc1 (racemic) [Bifenthrin]
mortality at 0.16 g/ha [1, 7]: 0% | mortality at 0.8 g/ha [2, 8]: 50%

CC1(C)[C@H](C(=O)O[C@H](C#N)c2cccc(Oc3ccccc3)c2)[C@@H]1/C=C(\Cl)C(F)(F)F (racemic) [Lambda-Cyhalothrin, lambda-Cyhalothrin]
mortality at 0.16 g/ha [1, 7]: 33% | mortality at 0.16 g/ha [3, 8]: 0% | mortality at 0.8 g/ha [2, 9]: 67%

Cc1c(F)c(F)c(COC(=O)[C@@H]2[C@H](/C=C(\Cl)C(F)(F)F)C2(C)C)c(F)c1F (racemic) [Tefluthrin]
mortality at 0.8 g/ha [4, 10]: 0% | mortality at 20 g/ha [2, 8]: 50%

C/C(=N\C#N)N(C)Cc1ccc(Cl)nc1 [Acetamiprid]
mortality at 20 g/ha [2, 8]: 33%

CC1(C)[C@H](C(=O)O[C@H](C#N)c2cccc(Oc3ccccc3)c2)[C@@H]1/C=C\C(=O)OC(C(F)(F)F)C(F)(F)F [Acrinathrin]
mortality at 0.8 g/ha [3, 11]: 80%

CC1(C)C(C=C(Cl)Cl)C1C(=O)OC(C#N)c1cccc(Oc2ccccc2)c1 (stereo not drawn) [Alpha-Cypermethrin, alpha-Cypermethrin]
mortality at 0.16 g/ha [4, 12]: 0% | mortality at 4 g/ha [2, 8]: 0%

C/C=C(\C)C(=O)O[C@H]1C[C@@H](OC(C)=O)[C@@]2(C(=O)OC)CO[C@H]3[C@@H](O)[C@@](C)([C@]45O[C@@]4(C)[C@H]4C[C@@H]5O[C@@H]5OC=C[C@@]54O)[C@H]4[C@]1(CO[C@]4(O)C(=O)OC)[C@@H]32 [Azadirachtin]
mortality at 100 g/ha ([4]; Tetranychus urticae, foliar, 100 g ai/ha, read-out: Mortality in % after 2^d): 0% | mortality at 100 g/ha [3, 8]: 0%

CC1(C)C(C=C(Cl)Cl)C1C(=O)OC(C#N)c1ccc(F)c(Oc2ccccc2)c1 (stereo not drawn) [Beta-Cyfluthrin, beta-Cyfluthrin]
Mortality in % after 6^d ([1]; 0.8 g ai/ha): 83% | Mortality in % after 6^d ([5]; 0.8 g ai/ha): 50%

CC(C)N1C(=O)N(c2ccccc2)CS/C1=N\C(C)(C)C [Buprofezin]
mortality at 500 g/ha [4, 12]: 0%

CNC(=O)c1cc(Cl)cc(C)c1NC(=O)c1cc(Br)nn1-c1ncccc1Cl [Chloranthraniliprole, Chlorantraniliprole]
mortality at 4 g/ha [3, 8]: 80% | mortality at 0.8 g/ha [2, 8]: 33%

CCOCn1c(-c2ccc(Cl)cc2)c(C#N)c(Br)c1C(F)(F)F [Chlorfenapyr]
mortality at 0.8 g/ha [4, 10]: 0%

CCOP(=S)(OCC)Oc1nc(Cl)c(Cl)cc1Cl [Chlorpyrifos]
mortality at 4 g/ha [4, 12]: 0% | mortality at 100 g/ha [1, 13]: 50% | mortality at 4 g/ha [3, 11]: 70%

CN/C(=N\[N+](=O)[O-])NCc1cnc(Cl)s1 [Clothianidin]
mortality at 20 g/ha [3, 11]: 0% | mortality at 20 g/ha [2, 8]: 83%

CC1(C)C(C=C(Cl)Cl)C1C(=O)OC(C#N)c1cccc(Oc2ccccc2)c1 (stereo not drawn) [Cypermethrin]
mortality at 0.8 g/ha ([1]; Spodoptera frugiperda, 0.8 g ai/ha, read-out: Mortality in % after 6^d): 67%

CC1(C)[C@H](C(=O)O[C@H](C#N)c2cccc(Oc3ccccc3)c2)[C@@H]1C=C(Br)Br [Deltamethrin]
mortality at 0.032 g/ha ([1]; Spodoptera frugiperda, 0.032 g ai/ha, read-out: Mortality in % after 6^d): 0%

O=C(NC(=O)c1c(F)cccc1F)Nc1ccc(Cl)cc1 [Diflubenzuron]
mortality at 4 g/ha [4, 14]: 0% | mortality at 100 g/ha ([1]; Spodoptera frugiperda, 100 g ai/ha, read-out: Mortality in % after 2^d): 67%

CN/C(=N/CC1CCOC1)N[N+](=O)[O-] (stereo not drawn) [Dinotefuran]
mortality at 20 g/ha [3, 11]: 0% | mortality at 20 g/ha [2, 8]: 0%

N#Cc1nn(-c2c(Cl)cc(C(F)(F)F)cc2Cl)c(N)c1[S+]([O-])C(F)(F)F (stereo not drawn) [Fipronil]
mortality at 0.8 g/ha [4, 10]: 0% | mortality at 0.16 g/ha [2, 9]: 0%

O=S(=O)(CCC(F)=C(F)F)c1ncc(Cl)s1 [Fluensulfone]
Mortality in % after 2^d ([4]; 2000 g ai/ha): 0%

O=C(NC(=O)c1c(F)cccc1F)Nc1ccc(Oc2ccc(C(F)(F)F)cc2Cl)cc1F [Flufenoxuron]
mortality at 0.8 g/ha [4, 10]: 0% | mortality at 20 g/ha [2, 8]: 0%

O=C1C=C(N(Cc2ccc(Cl)nc2)CC(F)F)CO1 [Flupyradifurone]
Mortality in % after 2^d ([4]; 0.8 g ai/ha): 0% | Mortality in % after 2^d ([5]; 500 g ai/ha): 50% | Mortality in % after 1^d ([6]; 20 g ai/ha): 70%

CC1(C)[C@H](C(=O)O[C@H](C#N)c2cccc(Oc3ccccc3)c2)[C@@H]1/C=C(\Cl)C(F)(F)F [Gamma-Cyhalothrin, gamma-Cyhalothrin]
Mortality in % after 2^d ([1]; 0.16 g ai/ha): 0%

O=[N+]([O-])NC1=NCCN1Cc1ccc(Cl)nc1 [Imidacloprid]
mortality at 0.8 g/ha [4, 10]: 0% | mortality at 0.8 g/ha [3, 11]: 0% | mortality at 20 g/ha [2, 8]: 0%

COC(=O)N(C(=O)N1CO[C@@]2(C(=O)OC)Cc3cc(Cl)ccc3C2=N1)c1ccc(OC(F)(F)F)cc1 [Indoxacarb]
Mortality in % after 6^d ([1]; 0.8 g ai/ha): 50%

CCN(Cc1ccc(Cl)nc1)/C(=C/[N+](=O)[O-])NC [Nitenpyram]
mortality at 0.8 g/ha [4, 10]: 0% | mortality at 20 g/ha [2, 8]: 0%

CC1=NNC(=O)N(/N=C/c2cccnc2)C1 [Pymetrozine]
mortality at 4 g/ha [3, 8]: 0%

CC(=O)N1C(=O)N(NCc2cccnc2)Cc2cc(C(F)(C(F)(F)F)C(F)(F)F)ccc21 [Pyrifluquinazone, Pyrifluquinazon]
Mortality in % after 2^d ([4]; 0.8 g ai/ha): 0%

CC(c1ccc(C(F)(F)F)nc1)S(C)(=O)=NC#N (stereo not drawn) [Sulfoxaflor]
mortality at 0.16 g/ha [4, 12]: 0% | mortality at 0.16 g/ha [3, 11]: 0% | mortality at 4 g/ha [2, 8]: 0%

CCc1nn(C)c(C(=O)NCc2ccc(C(C)(C)C)cc2)c1Cl [Tebufenpyrad]
mortality at 4 g/ha [4, 14]: 0%

N#C/N=C1\SCCN1Cc1ccc(Cl)nc1 [Thiacloprid]
mortality at 20 g/ha ([1]; Spodoptera frugiperda, read-out: Mortality in % after 6^d): 0% | mortality at 20 g/ha [2, 8]: 33%

CN1COCN(Cc2cnc(Cl)s2)/C1=N\[N+](=O)[O-] [Thiamethoxam]
mortality at 20 g/ha [2, 9]: 67%

CS/C(C)=N\OC(=O)N(C)SN(C)C(=O)O/N=C(\C)SC [Thiodicarb]
mortality at 4 g/ha [4, 14]: 0% | mortality at 100 g/ha [2, 8]: 0%

Cc1ccc(C(C)C)c(O)c1 [Thymol]
mortality at 500 g/ha ([4]; Tetranychus urticae, foliar, read-out: Mortality in % after 6^d): 0%

O=C(NC(=O)c1ccccc1Cl)Nc1ccc(OC(F)(F)F)cc1 [Triflumuron]
mortality at 20 g/ha [1, 13]: 0% | mortality at 20 g/ha [2, 8]: 0%

Abamectin
Mortality in % after 2^d ([4]; 0.032 g ai/ha): 0%

Emamectin benzoate [Emamectin-benzoate]
Mortality in % after 2^d ([5]; 0.8 g ai/ha): 67%

Lepimectin
Mortality in % after 2^d ([5]; 4 g ai/ha): 50%

Milbemectin
Mortality in % after 6^d ([1]; 0.8 g ai/ha): 0% | Mortality in % after 6^d ([6]; 4 g ai/ha): 70%

Spinetoram
Mortality in % after 2^d ([4]; 0.8 g ai/ha): 0%

Spinosad
Mortality in % after 2^d ([4]; 0.8 g ai/ha): 0%
